Results taken from patent US20260308159A1, “BICYCLIC HETEROARYLAMIDES HAVING GPR68 MODULATING ACTIVITY” (RECURSION PHARMACEUTICALS, INC., priority 2023, published 2026).
pIC50: −log10 of the molar value. Read-outs that look alike come from different tables or passages of the source. One block for each molecule: values may come before it.

Molecular target: T1, human GPR68 (Homo sapiens, UniProt Q15743)
T1 construct: encoding full-length human GPR68 (uniprot ID: Q15743); expressed in transfected cells; host or cells: HEK293T
T1 sequence (Q15743 whole entry): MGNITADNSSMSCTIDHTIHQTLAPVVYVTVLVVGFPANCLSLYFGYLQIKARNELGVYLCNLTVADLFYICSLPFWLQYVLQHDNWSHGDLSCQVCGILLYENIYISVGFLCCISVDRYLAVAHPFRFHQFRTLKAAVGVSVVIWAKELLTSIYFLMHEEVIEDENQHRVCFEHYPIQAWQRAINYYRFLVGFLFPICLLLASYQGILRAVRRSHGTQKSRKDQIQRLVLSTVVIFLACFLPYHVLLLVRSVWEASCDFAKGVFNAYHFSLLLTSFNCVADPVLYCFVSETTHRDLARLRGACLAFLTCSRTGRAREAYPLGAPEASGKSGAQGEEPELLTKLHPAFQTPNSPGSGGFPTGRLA
Experiment: GPR68 Biochemical Assay (Promega GloSensor cAMP assay, GPR68 antagonism)
Assay type: cell-based
Conditions: 15 min
Summary of the method: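 Readout is GloSensor cAMP luminescence after 15 min at room temperature, normalised between pH 5.5 stimulation and pH 8.0 minimum controls; IC50 fitted sigmoidally. Test compounds, up to 50 μM final (9-point half-log, 0.5% DMSO), were co-added with pH 5.5 buffer to HEK293T cells transiently expressing full-length human GPR68 plus GloSensor.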

[1] = HEK293T cells transiently expressing hGPR68, antagonism of pH 5.5 stimulated cAMP, read-out: hGPR68 IC50

pIC50 [1]: > 7.30
Structure (SMILES): COCc1nn2c(C(=O)NC3CCc4ccc(F)cc4C3)ccnc2c1C(N)=O (centres unmarked) [Compound 82, N7-(7-fluorotetralin-2-yl)-2-(methoxymethyl)pyrazolo[1,5-a]pyrimidine-3,7-dicarboxamide]

pIC50 [1]: 5.30 to 6.30
Structure (SMILES): COCc1nn2c(C(=O)N[C@H]3CC[C@@H](C)CC3)ccnc2c1C(N)=O [Compound 84, 2-(methoxymethyl)-N7-(cis-4-methylcyclohexyl)pyrazolo[1,5-a]pyrimidine-3,7-dicarboxamide]

pIC50 [1]: > 7.30
Structure (SMILES): COCc1nn2c(C(=O)NC3Cc4cscc4C3)ccnc2c1C(N)=O [Compound 85, N7-(5,6-dihydro-4H-cyclopenta[c]thiophen-5-yl)-2-(methoxymethyl)pyrazolo[1,5-a]pyrimidine-3,7-dicarboxamide]

pIC50 [1]: 6.30 to 7.30
Structure (SMILES): COCc1nn2c(C(=O)N[C@H]3C[C@H](C)C3)ccnc2c1C(N)=O [Compound 86, 2-(methoxymethyl)-N7-(trans-3-methylcyclobutyl)pyrazolo[1,5-a]pyrimidine-3,7-dicarboxamide]

pIC50 [1]: > 7.30
Structure (SMILES): COCc1nn2c(C(=O)NC3Cc4ccc(Cl)cc4C3)ccnc2c1C(N)=O (centres unmarked) [Compound 87, N7-(5-chloroindan-2-yl)-2-(methoxymethyl)pyrazolo[1,5-a]pyrimidine-3,7-dicarboxamide]

pIC50 [1]: > 7.30
Structure (SMILES): COCc1nn2c(C(=O)NC3Cc4ccccc43)ccnc2c1C(N)=O (centres unmarked) [Compound 88, N7-(7-bicyclo[4.2.0]octa-1,3,5-trienyl)-2-(methoxymethyl)pyrazolo[1,5-a]pyrimidine-3,7-dicarboxamide]

pIC50 [1]: > 7.30
Structure (SMILES): COCc1nn2c(C(=O)NC3Cc4cccc(F)c4C3)ccnc2c1C(N)=O (centres unmarked) [Compound 91, N7-(4-fluoroindan-2-yl)-2-(methoxymethyl)pyrazolo[1,5-a]pyrimidine-3,7-dicarboxamide]

pIC50 [1]: > 7.30
Structure (SMILES): COCc1nn2c(C(=O)NC3Cc4cc(F)cc(F)c4C3)ccnc2c1C(N)=O (centres unmarked) [Compound 92, N7-(4,6-difluoroindan-2-yl)-2-(methoxymethyl)pyrazolo[1,5-a]pyrimidine-3,7-dicarboxamide]

pIC50 [1]: > 7.30
Structure (SMILES): COCc1nn2c(C(=O)NC3CNc4ccccc4C3)ccnc2c1C(N)=O (centres unmarked) [Compound 93, 2-(methoxymethyl)-N7-(1,2,3,4-tetrahydroquinolin-3-yl)pyrazolo[1,5-a]pyrimidine-3,7-dicarboxamide]

pIC50 [1]: 6.30 to 7.30
Structure (SMILES): COCc1nc2c(C(=O)NC3Cc4cccnc4C3)ccnn2c1C(N)=O (centres unmarked) [Compound 104, N8-(6,7-dihydro-5H-cyclopenta[b]pyridin-6-yl)-2-(methoxymethyl)imidazo[1,2-b]pyridazine-3,8-dicarboxamide]

pIC50 [1]: > 7.30
Structure (SMILES): NC(=O)c1c(C2CC2)nn2c(C(=O)N[C@H]3C[C@@H](OC(F)(F)F)C3)ccnc12 [Compound 111, 2-cyclopropyl-N7-[cis-3-(trifluoromethoxy)cyclobutyl]pyrazolo[1,5-a]pyrimidine-3,7-dicarboxamide]

pIC50 [1]: > 7.30
Structure (SMILES): NC(=O)c1c(C2CC2)nn2c(C(=O)NC3CC(F)(F)c4ccccc43)ccnc12 (centres unmarked) [Compound 112, 2-cyclopropyl-N7-(3,3-difluoroindan-1-yl)pyrazolo[1,5-a]pyrimidine-3,7-dicarboxamide]

pIC50 [1]: > 7.30
Structure (SMILES): NC(=O)c1c(C2CC2)nn2c(C(=O)N[C@H]3CCOc4cc(F)ccc43)ccnc12 [Compound 113, 2-cyclopropyl-N7-[(4S)-7-fluorochroman-4-yl]pyrazolo[1,5-a]pyrimidine-3,7-dicarboxamide]

pIC50 [1]: > 7.30
Structure (SMILES): NC(=O)c1c(C2CC2)nn2c(C(=O)NC3Cc4cccnc4C3)ccnc12 (centres unmarked) [Compound 115, 2-cyclopropyl-N7-(6,7-dihydro-5H-cyclopenta[b]pyridin-6-yl)pyrazolo[1,5-a]pyrimidine-3,7-dicarboxamide]

The next lines start with the molecule.

Structure (SMILES): COCc1nn2c(C(=O)NCc3ccc(F)cc3F)ccnc2c1C(N)=O [Compound 83, N7-[(2,4-difluorophenyl)methyl]-2-(methoxymethyl)pyrazolo[1,5-a]pyrimidine-3,7-dicarboxamide]
pIC50 [1]: > 7.30

Structure (SMILES): COCc1nn2c(C(=O)N3CCN(c4ncccc4C(F)(F)F)CC3)ccnc2c1C(N)=O [Compound 89, 2-(methoxymethyl)-7-[4-[3-(trifluoromethyl)-2-pyridyl]piperazine-1-carbonyl]pyrazolo[1,5-a]pyrimidine-3-carboxamide]
pIC50 [1]: 4.00 to 4.30

Structure (SMILES): COCc1nn2c(C(=O)NCC3(N(C)C)CCCCC3)ccnc2c1C(N)=O [Compound 90, N7-[[1-(dimethylamino)cyclohexyl]methyl]-2-(methoxymethyl)pyrazolo[1,5-a]pyrimidine-3,7-dicarboxamide]
pIC50 [1]: 4.00 to 4.30

Structure (SMILES): COCc1nn2c(C(=O)N[C@H]3C[C@](C)(F)C3)ccnc2c1C(N)=O [Compound 94, N7-(trans-3-fluoro-3-methyl-cyclobutyl)-2-(methoxymethyl)pyrazolo[1,5-a]pyrimidine-3,7-dicarboxamide]
pIC50 (hGPR68 IC50, HEK293T cells transiently expressing hGPR68, antagonism of pH 5.5 stimulated cAMP): 6.30 to 7.30

Structure (SMILES): COCc1nn2c(C(=O)N3Cc4ccccc4C3)ccnc2c1C(N)=O [Compound 95, 7-(isoindoline-2-carbonyl)-2-(methoxymethyl)pyrazolo[1,5-a]pyrimidine-3-carboxamide]
pIC50 [1]: 5.30 to 6.30

Structure (SMILES): CCC(CNC(=O)c1ccnc2c(C(N)=O)cnn12)Oc1cccc(C)c1 (centres unmarked) [Compound 96, N7-[2-(3-methylphenoxy)butyl]pyrazolo[1,5-a]pyrimidine-3,7-dicarboxamide]
pIC50 [1]: 4.30 to 5.30

Structure (SMILES): Cc1ccc(-c2ccncc2)cc1NC(=O)c1ccnc2c(C(N)=O)cnn12 [Compound 97, N7-[2-methyl-5-(pyridin-4-yl)phenyl]pyrazolo[1,5-a]pyrimidine-3,7-dicarboxamide]
pIC50 [1]: 5.30 to 6.30

Structure (SMILES): COc1ccc2[nH]c(C(C)NC(=O)c3ccnc4c(C(N)=O)cnn34)nc2c1 (centres unmarked) [Compound 98, N7-[1-(5-methoxy-1H-1,3-benzodiazol-2-yl)ethyl]pyrazolo[1,5-a]pyrimidine-3,7-dicarboxamide]
pIC50 [1]: 4.30 to 5.30

Structure (SMILES): CC(COc1ccc(C(C)(C)C)cc1)NC(=O)c1ccnc2c(C(N)=O)cnn12 (centres unmarked) [Compound 99, N7-[1-(4-tert-butylphenoxy)propan-2-yl]pyrazolo[1,5-a]pyrimidine-3,7-dicarboxamide]
pIC50 [1]: 4.30 to 5.30

Structure (SMILES): NC(=O)c1cnn2c(C(=O)NCCC(F)(F)F)ccnc12 [Compound 100, N7-(3,3,3-trifluoropropyl)pyrazolo[1,5-a]pyrimidine-3,7-dicarboxamide]
pIC50 [1]: 4.30 to 5.30

Structure (SMILES): NC(=O)c1cnn2c(C(=O)NCC3CCC(F)(F)CC3)ccnc12 [Compound 101, N7-[(4,4-difluorocyclohexyl)methyl]pyrazolo[1,5-a]pyrimidine-3,7-dicarboxamide]
pIC50 [1]: 5.30 to 6.30

Structure (SMILES): NC(=O)c1cnn2c(C(=O)NC3CC(F)(F)C3)ccnc12 [Compound 102, N7-(3,3-difluorocyclobutyl)pyrazolo[1,5-a]pyrimidine-3,7-dicarboxamide]
pIC50 [1]: 5.30 to 6.30

Structure (SMILES): NC(=O)c1cnn2c(C(=O)NC3CCC(F)(F)CC3)ccnc12 [Compound 103, N7-(4,4-difluorocyclohexyl)pyrazolo[1,5-a]pyrimidine-3,7-dicarboxamide]
pIC50 [1]: 5.30 to 6.30

Structure (SMILES): COCc1nc2c(C(=O)NC3Cc4cscc4C3)ccnn2c1C(N)=O [Compound 105, N8-(5,6-dihydro-4H-cyclopenta[c]thiophen-5-yl)-2-(methoxymethyl)imidazo[1,2-b]pyridazine-3,8-dicarboxamide]
pIC50 [1]: > 7.30

Structure (SMILES): COCc1nc2c(C(=O)NC3Cc4ccccc43)ccnn2c1C(N)=O (centres unmarked) [Compound 106, N8-(7-bicyclo[4.2.0]octa-1,3,5-trienyl)-2-(methoxymethyl)imidazo[1,2-b]pyridazine-3,8-dicarboxamide]
pIC50 [1]: > 7.30

Structure (SMILES): COCc1nc2c(C(=O)NC3CC(F)(F)c4ccccc43)ccnn2c1C(N)=O (centres unmarked) [Compound 107, N8-(3,3-difluoroindan-1-yl)-2-(methoxymethyl)imidazo[1,2-b]pyridazine-3,8-dicarboxamide]
pIC50 [1]: > 7.30

Structure (SMILES): COCc1nc2c(C(=O)N[C@H]3CCOc4cc(F)ccc43)ccnn2c1C(N)=O [Compound 108, 2-(methoxymethyl)-N8-[(4S)-7-fluorochroman-4-yl]imidazo[1,2-b]pyridazine-3,8-dicarboxamide]
pIC50 [1]: > 7.30

Structure (SMILES): COCc1nc2c(C(=O)NC3CCC(F)(F)CC3)ccnn2c1C(N)=O [Compound 109, N8-(4,4-difluorocyclohexyl)-2-(methoxymethyl)imidazo[1,2-b]pyridazine-3,8-dicarboxamide]
pIC50 [1]: > 7.30

Structure (SMILES): COCc1nc2c(C(=O)NCc3ccc(F)cc3)ccnn2c1C(N)=O [Compound 110, N8-[(4-fluorophenyl)methyl]-2-(methoxymethyl)imidazo[1,2-b]pyridazine-3,8-dicarboxamide]
pIC50 [1]: > 7.30

Structure (SMILES): COCc1nn2c(C(=O)NC3COc4ccc(Cl)cc4C3)ccnc2c1C(N)=O (centres unmarked) [Compound 114, N7-(6-chlorochroman-3-yl)-2-(methoxymethyl)pyrazolo[1,5-a]pyrimidine-3,7-dicarboxamide]
pIC50 [1]: > 7.30

Structure (SMILES): COCc1nn2c(C(=O)NC3CCC(F)(F)c4ccccc43)ccnc2c1C(N)=O (centres unmarked) [Compound 116, N7-(4,4-difluorotetralin-1-yl)-2-(methoxymethyl)pyrazolo[1,5-a]pyrimidine-3,7-dicarboxamide]
pIC50 [1]: > 7.30

Structure (SMILES): COCc1nn2c(C(=O)Nc3cnc4c(F)cccc4c3)ccnc2c1C(N)=O [Compound 117, N7-(8-fluoro-3-quinolyl)-2-(methoxymethyl)pyrazolo[1,5-a]pyrimidine-3,7-dicarboxamide]
pIC50 [1]: > 7.30

Structure (SMILES): COCc1nn2c(C(=O)Nc3cc4ccccc4n3C)ccnc2c1C(N)=O [Compound 118, 2-(methoxymethyl)-N7-(1-methylindol-2-yl)pyrazolo[1,5-a]pyrimidine-3,7-dicarboxamide]
pIC50 [1]: > 7.30

Structure (SMILES): COCc1nn2c(C(=O)N[C@H]3COc4c3ccc(F)c4F)ccnc2c1C(N)=O [Compound 119, 2-(methoxymethyl)-N7-[(3R)-6,7-difluoro-2,3-dihydrobenzofuran-3-yl]pyrazolo[1,5-a]pyrimidine-3,7-dicarboxamide]
pIC50 [1]: > 7.30
